The values that follow come from US5747493A, “Dopamine re-uptake inhibitor” (Pola Chemical Industries, Inc., priority 1993, dated 1998).

For the experiment, the target named is T1, [^3 H] GBR12935 binding in rat strialal crude membrane (Rattus norvegicus, UniProt P23977).
T1 construct: from tissue; host or cells: corpus striatum of Wistar male rat, crude membrane
Put plainly: [^3 H] GBR12935 binding in rat striatal crude membrane. On the set-up: species or system rat (Wistar male). The note with it: 1 nM [^3 H] GBR12935, rat striatal crude membrane; for IC50: 4° C., 80 minutes. The protocol:
After a cold 50 mM Tris-citrate buffer (pH 7.4, including 120 mM NaCl and 4 mM MgCl2) was added to a corpus striatum taken out of a Wistar male rat aged 12-13 weeks (while keeping on ice) to homogenize the resultant mixture, the homogenate was subjected twice to centrifugation under chilling for 20 minutes at 48,000 g. The final sedimentation residue thus obtained was suspended again in the same buffer as that used above to conserve the suspension at -80° C.
After thawing this frozen suspension, the thawed suspension was diluted to one thousandth of the amount of the tissue with the same buffer as that used above. To 0.8 ml of this crude membrane sample, were added [^3 H] GBR12935 (final concentration: 1 nM) and individual test substances and amantadine which is in clinical use at present (developing the concentration within a range of from 10^-3 to 10^-9 M) to 1 ml in total. Each of the resulting sample mixtures was incubated at 4° C. for 80 minutes in a plastic tube. After the incubation, the mixture was filtered by means of suction on a glass filter (Whatman GP/B) soaked in a 0.1% BSA, and the filter was washed three times with 3 ml of cold 0.9% NaCl. The thus-obtained filter was placed in a vial, and 10 ml of Aquazol-2 were added to conserve the filter overnight. Thereafter, the radioactivity of the sample was measured by a liquid scintillation counter. An IC50 value and a Hill coefficient were determined from the obtained uptake inhibition curve as to each of the test samples.

Where a name gives a salt, the structure may show the parent alone.

T1 sequence (P23977 whole entry): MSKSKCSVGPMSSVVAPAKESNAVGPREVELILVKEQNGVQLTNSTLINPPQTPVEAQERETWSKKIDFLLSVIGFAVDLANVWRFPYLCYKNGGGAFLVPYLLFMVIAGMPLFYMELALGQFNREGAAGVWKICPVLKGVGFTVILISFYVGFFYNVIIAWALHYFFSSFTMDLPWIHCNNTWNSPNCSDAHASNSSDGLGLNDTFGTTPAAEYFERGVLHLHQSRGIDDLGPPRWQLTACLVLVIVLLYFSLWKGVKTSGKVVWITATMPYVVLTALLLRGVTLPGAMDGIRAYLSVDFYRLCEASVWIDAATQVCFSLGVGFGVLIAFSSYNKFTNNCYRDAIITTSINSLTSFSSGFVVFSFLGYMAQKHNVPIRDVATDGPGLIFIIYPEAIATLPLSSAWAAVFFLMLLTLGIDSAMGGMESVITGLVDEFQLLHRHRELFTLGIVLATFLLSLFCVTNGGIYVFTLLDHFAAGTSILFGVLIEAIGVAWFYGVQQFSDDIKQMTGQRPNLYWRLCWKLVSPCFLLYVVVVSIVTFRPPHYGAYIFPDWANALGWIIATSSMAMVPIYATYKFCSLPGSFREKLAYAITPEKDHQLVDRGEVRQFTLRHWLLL

In the case of `OC(CNc1ccccc1)CN1CCN(CCCC(c2ccc(F)cc2)c2ccc(F)cc2)CC1` (single isomer, unassigned; (+)) [Compound 16, (+)-1-[4,4-Bis(4-fluoro-phenyl)butyl]-4-(2-hydroxy-3-phenylaminopropyl)piperazinedihydrochloride], the “Hill coefficient (nH)” value is given as 0.57 ± 0.04 and the IC50 was 0.002 ± 0.00053 µM.
For `OC(CNc1ccccc1)CN1CCN(CCCC(c2ccc(F)cc2)c2ccc(F)cc2)CC1` (single isomer, unassigned; (-)) [Compound 15, (-)-1-[4,4-Bis(4-fluoro-phenyl)butyl]-4-(2-hydroxy-3-phenylaminopropyl)piperazinedihydrochloride] the same measures were 0.72 ± 0.05 and 0.002 ± 0.0001 µM.
Turning to `NC12CC3CC(CC(C3)C1)C2` [Amantadine, amantadine, reference compound], the “Hill coefficient (nH)” value is 1.36 ± 0.08. Further, under “amantadine line in μM”, the IC50 turned out to be 819 ± 30.9 µM.
As for `OC(CNc1ccccc1)CN1CCN(C(c2ccc(F)cc2)c2ccc(F)cc2)CC1` (centres unmarked) [Compound 2, 1-[Bis(4-fluorophenyl)methyl]-4-(2-hydroxy-3-phenylamino-propyl)piperazine dihydro-chloride], the “Hill coefficient (nH)” value is reported as 0.66 ± 0.05 and the IC50 was found to be 0.02 ± 0.003 µM.
With `Cl.Cl.OC(CNc1ccc(F)cc1)CN1CCN(CCCC(c2ccc(F)cc2)c2ccc(F)cc2)CC1` (centres unmarked) [Compound 9, 1-[4,4-Bis(4-fluorophenyl)-butyl]-4-[3-(4-fluorophenyl-amino)-2-hydroxypropyl]-piperazine dihydrochloride], the “Hill coefficient (nH)” value worked out at 0.74 ± 0.01 and the IC50 worked out at 0.004 ± 0.00023 µM.
For `Cl.Cl.OC(CNc1ccc(Cl)cc1)CN1CCN(CCCC(c2ccc(F)cc2)c2ccc(F)cc2)CC1` (centres unmarked) [Compound 10, 1-[4,4-Bis(4-fluorophenyl)-butyl]-4-[3-(4-chlorophenyl-amino)-2-hydroxypropyl]-piperazine dihydrochloride], in that order: 0.82 ± 0.03 and 0.003 ± 0.00032 µM.
For `COc1cc(NCC(O)CN2CCN(CCCC(c3ccc(F)cc3)c3ccc(F)cc3)CC2)cc(OC)c1OC.O=C(O)/C=C\C(=O)O.O=C(O)/C=C\C(=O)O` (centres unmarked) [Compound 11, 1-[4,4-Bis(4-fluorophenyl)-butyl]-4-[2-hydroxy-3-(3,4,5-trimethoxyphenylamino)propyl]-piperazine dimaleate] the same measures were 0.79 ± 0.04 and 0.043 ± 0.00532 µM.
For `OC(CNc1ccc(Cl)c(Cl)c1)CN1CCN(CCCC(c2ccc(F)cc2)c2ccc(F)cc2)CC1` (centres unmarked) [Compound 12, 1-[4,4-Bis(4-fluorophenyl)-buyl]-4-[3-(3,4-dichloro-phenylamino)-2-hydroxy-propyl]piperazinedihydrochloride] the same measures were 0.74 ± 0.03 and 0.012 ± 0.00072 µM.
As to `COc1ccc(NCC(O)CN2CCN(CCCC(c3ccc(F)cc3)c3ccc(F)cc3)CC2)cc1.Cl.Cl` (centres unmarked) [Compound 13, 1-[4,4-Bis(4-fluorophenyl)-butyl]-4-(2-hydroxy-3-(4-methoxyphenylamino)propyl]-piperazine dihydrochloride], the “Hill coefficient (nH)” value was 0.52 ± 0.02 and the IC50 turned out to be 0.003 ± 0.00016 µM.
Regarding `Cc1ccc(NCC(O)CN2CCN(CCCC(c3ccc(F)cc3)c3ccc(F)cc3)CC2)cc1.Cl.Cl` (centres unmarked) [Compound 14, 1-[4,4-Bis(4-fluorophenyl)-butyl]-4-[2-hydroxy-3-(4-methylphenylamino)propyl]-piperazine dihydrochloride], the “Hill coefficient (nH)” value stood at 0.65 ± 0.03 and the IC50 is 0.004 ± 0.00041 µM.
`O=C(O)/C=C\C(=O)O.O=C(O)/C=C\C(=O)O.O=C(O)/C=C\C(=O)O.OC(CNc1ccncc1)CN1CCN(CCCC(c2ccc(F)cc2)c2ccc(F)cc2)CC1` (centres unmarked) [Compound 17, 1-[4,4-Bis(4-fluorophenyl)-butyl]-4-[2-hydroxy-3-(4-pyridylamino)propyl]-piperazine trimaleate]: the “Hill coefficient (nH)” value is given as 0.74 ± 0.04 and the IC50 was 0.034 ± 0.002 µM.
Take `OC(CNc1ccccc1)CN1CCN(CCC(c2ccc(F)cc2)c2ccc(F)cc2)CC1` (centres unmarked) [Compound 18, 1-[3,3-Bis(4-fluorophenyl)-propyl]-4-(2-hydroxy-3-phenylaminopropyl)piperazinedihydrochloride]: the “Hill coefficient (nH)” value is reported as 0.67 ± 0.04 and the 50% inhibitory concentration (IC50) was 0.007 ± 0.00065 µM.
For the compound `OC(CNc1ccccc1)CN1CCN(CC(c2ccccc2)c2ccccc2)CC1` (centres unmarked) [Compound 19, 1-(2,2-Diphenylethyl)-4-(2-hydroxy-3-phenylamino-propyl)piperazinedihydrochloride], the “Hill coefficient (nH)” value is listed as 0.76 ± 0.02 and the IC50 stood at 0.028 ± 0.002 µM.
As to `Cl.Cl.O=[N+]([O-])c1ccc(NCC(O)CN2CCN(CCCC(c3ccc(F)cc3)c3ccc(F)cc3)CC2)cc1` (centres unmarked) [Compound 20, 1-[4,4-Bis(4-fluorophenyl)-butyl]-4-[2-hydroxy-3-(4-nitrophenylamino)propyl]-piperazine dihydrochloride], the “Hill coefficient (nH)” value is on record as 0.69 ± 0.04 and the IC50 was 0.008 ± 0.0005 µM.
On to `OC(CNc1ccccc1)CN1CCN(CCCCC(c2ccc(F)cc2)c2ccc(F)cc2)CC1` (centres unmarked) [Compound 21, 1-[5,5-Bis(4-fluorophenyl)-pentyl]-4-(2-hydroxy-3-phenylaminopropyl)piperazinedihydrochloride], for which the “Hill coefficient (nH)” value came out at 0.89 ± 0.07 and the IC50 amounted to 0.006 ± 0.00032 µM.
For `CC(C)(C)c1cc(NCC(O)CN2CCN(CCCC(c3ccc(F)cc3)c3ccc(F)cc3)CC2)cc(C(C)(C)C)c1O` (centres unmarked) [Compound 22, 1-[4,4-Bis(4-fluorophenyl)-butyl]-4-[3-(3,5-di-tert-butyl-4-hydroxyphenylamino)-2-hydroxypropyl]piperazinetrimaleate], in that order: 0.78 ± 0.07 and 0.087 ± 0.007 µM.
For `Nc1ccc(NCC(O)CN2CCN(CCCC(c3ccc(F)cc3)c3ccc(F)cc3)CC2)cc1` (centres unmarked) [Compound 23, 1-[3-(4-Aminophenylamino)-2-hydroxypropyl]-4-(4,4-bis(4-fluorophenyl)butyl]piperazinetrimaleate] the same measures were 0.64 ± 0.09 and 0.037 ± 0.009 µM.
On to `CN(C)c1ccc(NCC(O)CN2CCN(CCCC(c3ccc(F)cc3)c3ccc(F)cc3)CC2)cc1` (centres unmarked) [Compound 24, 1-[4,4-Bis(4-fluorophenyl)-butyl]-4-[3-(4-dimethyl-aminophenylamino)-2-hydroxy-propyl]piperazine dimaleate], for which the “Hill coefficient (nH)” value is recorded as 0.94 ± 0.10 and the IC50 was 0.109 ± 0.019 µM.
On to `O=C(O)/C=C\C(=O)O.O=C(O)/C=C\C(=O)O.Oc1ccc(NCC(O)CN2CCN(CCCC(c3ccc(F)cc3)c3ccc(F)cc3)CC2)cc1` (centres unmarked) [Compound 25, 1-[4,4-Bis(4-fluorophenyl)-butyl]-4-[2-hydroxy-3-(4-hydroxyphenylamino)propyl]-piperazine dimaleate], for which the “Hill coefficient (nH)” value is recorded as 0.63 ± 0.09 and the IC50 was 0.01 ± 0.003 µM.

Broadly, the IC50 is the midpoint of a concentration-inhibition curve. Read a high IC50 as weaker potency in that assay.
